The results in this text go back to patent US7037909B2, “Tetracyclic compounds as c-Met inhibitors” (Sugen, Inc., priority 2003, dated 2006).

T1 sequence (P08581 1078-1345 limits assumed): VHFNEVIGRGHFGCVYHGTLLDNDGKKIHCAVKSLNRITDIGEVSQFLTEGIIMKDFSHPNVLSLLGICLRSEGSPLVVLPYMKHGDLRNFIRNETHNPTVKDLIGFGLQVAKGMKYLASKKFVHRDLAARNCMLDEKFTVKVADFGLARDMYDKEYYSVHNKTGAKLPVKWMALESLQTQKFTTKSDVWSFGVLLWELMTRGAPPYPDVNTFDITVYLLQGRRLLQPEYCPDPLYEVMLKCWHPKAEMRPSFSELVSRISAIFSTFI

The first test concerns the target T1, c-MET (Homo sapiens, UniProt P08581).
T1 construct: Purified GST fusion protein containing the Met kinase domain, Sugen, Inc
As to the kind of experiment: MET Transphosphorylation Assay (ELISA, poly(Glu,Tyr) 4:1 substrate).
Settings: not given
The test is classed as biochemical. On the procedure:
MET Transphosphorylation Assay
This assay is used to measure phosphotyrosine levels on a poly(glutamic acid:tyrosine (4:1)) substrate as a means for identifying agonists/antagonists of met transphosphorylation of the substrate.
• 1. […] PBS, Gibco Catalog #450-1300EB • 4. 50 mM HEPES • 5. […] Purified GST fusion protein containing the Met kinase domain, Sugen, Inc. • 7. TBST Buffer. • 8. 10% aqueous (MilliQue H2O) DMSO. • 9. […] 2× Kinase Dilution Buffer: for 100 ml, mix 10 mL 1M HEPES at pH 7.5 with 0.4 mL 5% BSA/PBS, 0.2 mL 0.1M sodium orthovanadate and 1 mL 5M sodium chloride in 88.4 mL dH2O. • 11. 4× ATP Reaction Mixture: for 10 mL, mix 0.4 mL 1M manganese chloride and 0.02 mL 0.1M ATP in 9.56 mL dH2O. • 12. 4× Negative Controls Mixture: for 10 mL, mix 0.4 mL 1M manganese chloride in 9.6 mL dH2O. • 13. […] 500 mM EDTA. • 15. Antibody Dilution Buffer: for 100 mL, mix 10 mL 5% BSA/PBS, 0.5 mL 5% Carnation Instant Milk® in PBS and 0.1 mL 0.1M sodium orthovanadate in 88.4 mL TBST. • 16. Rabbit polyclonal antophosphotyrosine antibody, Sugen, Inc. • 17. Goat anti-rabbit horseradish peroxidase conjugated antibody, Biosource, Inc. • 18. ABTS Solution: for 1 L, mix 19.21 g citric acid, 35.49 g Na2HPO4 and 500 mg ABTS with sufficient dH2O to make 1 L. • 19. ABTS/H2O2: mix 15 mL ABST solution with 2 μL H2O2 five minutes before use. • 20. 0.2M HCl Procedure: • 1. Coat ELISA plates with 2 μg Poly(Glu-Tyr) in 100 μL PBS, store overnight at 4° C. • 2. Block plate with 150 μL of 5% BSA/PBS for 60 min. • 3. Wash plate twice with PBS, once with 50 mM Hepes buffer pH 7.4. • 4. Add 50 μl of the diluted kinase to all wells. (Purified kinase is diluted with Kinase Dilution Buffer. Final concentration should be 10 ng/well.) • 5. Add 25 μL of the test compound (in 4% DMSO) or DMSO alone (4% in dH2O) for controls to plate. • 6. Incubate the kinase/compound mixture for 15 minutes. • 7. Add 25 μL of 40 mM MnCl2 to the negative control wells. • 8. Add 25 μL ATP/MnCl2 mixture to the all other wells (except the negative controls). Incubate for 5 min. • 9. Add 25 μL 500 mM EDTA to stop reaction. • 10. Wash plate 3× with TBST. • 11. Add 100 μL rabbit polyclonal anti-Ptyr diluted 1:10,000 in Antibody Dilution Buffer to each well. Incubate, with shaking, at room temperature for one hour. • 12. Wash plate 3× with TBST. • 13. Dilute Biosource HRP conjugated anti-rabbit antibody 1: 6,000 in Antibody Dilution buffer. Add 100 μL per well and incubate at room temperature, with shaking, for one hour. • 14. Wash plate 1× with PBS. • 15. Add 100 μl of ABTS/H2O2 solution to each well. • 16. If necessary, stop the development reaction with the addition of 100 μl of 0.2M HCl per well. • 17. […]
`COc1ccc2[nH]c3nc4nnc(Cc5ccc(O)cc5)n4nc3c2c1Cl` [Example 19, 4-(5-Chloro-6-methoxy-9H-1,2,3a,4,9,10-hexaaza-cyclopenta[b]fluoren-3-ylmethyl)-phenol] came in with a half-inhibitory concentration (IC50) of 12 nM.

Staying with this test, now noted: purified GST fusion protein containing the Met kinase domain; poly(glu, tyr) 4:1 substrate; read-out: c-MET IC50.
As for `Oc1ccc(Cc2nnc3nc4[nH]c5ccccc5c4nn23)cc1` [Example 17, 4-(9H-1,2,3a,4,9,10-Hexaaza-cyclopenta[b]fluoren-3-ylmethyl)-phenol], the IC50 is 18 nM.

For the compound `Oc1ccc(Cc2nnc3nc4[nH]c5c(Cl)ccc(Cl)c5c4nn23)cc1` [Example 18, 4-(5,8-Dichloro-9H-1,2,3a,4,9,10-hexaaza-cyclopenta[b]fluoren-3-ylmethyl)-phenol], the IC50 was 36 nM.

Regarding `COc1cc(Cl)c2[nH]c3nc4nnc(Cc5ccc(O)cc5)n4nc3c2c1Cl` [Example 20, 4-(5,8-Dichloro-6-methoxy-9H-1,2,3a,4,9,10-hexaaza-cyclopenta[b]fluoren-3-ylmethyl)-phenol], the IC50 is 46 nM.

Turning to `Oc1ccc(Cc2nnc3nc4[nH]c5cccc(Cl)c5c4nn23)cc1` [Example 21, 4-(5-Chloro-9H-1,2,3a,4,9,10-hexaaza-cyclopenta[b]fluoren-3-ylmethyl)-phenol], the IC50 turned out to be 10 nM.

As for `Oc1ccc(Cc2nnc3nc4[nH]c5c(Cl)cccc5c4nn23)cc1` [Example 22, 4-(8-Chloro-9H-1,2,3a,4,9,10-hexaaza-cyclopenta[b]fluoren-3-ylmethyl)-phenol], the concentration for half-maximal inhibition (IC50) is 35 nM.

Consider `Oc1ccc(Cc2nnc3nc4[nH]c5c(Cl)cc(Cl)c(Cl)c5c4nn23)cc1` [Example 23, 4-(5,6,8-Trichloro-9H-1,2,3a,4,9,10-hexaaza-cyclopenta[b]fluoren-3-ylmethyl)-phenol], for which the IC50 was determined as 460 nM.

For `Cc1ccc(C)c2c1[nH]c1nc3nnc(Cc4ccc(O)cc4)n3nc12` [Example 24, 4-(5,8-Dimethyl-9H-1,2,3a,4,9,10-hexaaza-cyclopenta[b]fluoren-3-ylmethyl)-phenol, dihydrate], the concentration for half-maximal inhibition (IC50) was determined as 22 nM.

On to `Cc1cc(C)c2[nH]c3nc4nnc(Cc5ccc(O)cc5)n4nc3c2c1` [Example 25, 4-(6,8-Dimethyl-9H-1,2,3a,4,9,10-hexaaza-cyclopenta[b]fluoren-3-ylmethyl)-phenol], for which the IC50 was found to be 55 nM.

For the compound `Cc1cc(Cl)cc2c1[nH]c1nc3nnc(Cc4ccc(O)cc4)n3nc12` [Example 26, 4-(6-Chloro-8-methyl-9H-1,2,3a,4,9,10-hexaaza-cyclopenta[b]fluoren-3-ylmethyl)-phenol], the IC50 was determined as 25 nM.

With `N[C@H]1CCN(C(=O)c2ccc3[nH]c4nc5nnc(Cc6ccc(F)cc6)n5nc4c3c2Cl)C1` [Example 34, [(3S)-3-Amino-pyrrolidin-1-yl]-[5-chloro-3-(4-fluoro-benzyl)-9H-1,2,3a,4,9,10-hexaaza-cyclopenta[b]fluoren-6-yl]-methanone], the IC50 was 42 nM.

On to `Cc1cc(OCCN2CCOCC2)c(C)c2c1[nH]c1nc3nnc(Cc4ccc(O)cc4)n3nc12` [Example 35, 4-[5,8-Dimethyl-6-(2-morpholin-4-yl-ethoxy)-9H-1,2,3a,4,9,10-hexaaza-cyclopenta[b]fluoren-3-ylmethyl]-phenol], for which the 50% inhibitory concentration (IC50) is 28 nM.

As to `Cc1cc(OCCN2CCOCC2)c(C)c2c1[nH]c1nc3nnc(Cc4ccc(F)cc4)n3nc12` [Example 36, 3-(4-Fluoro-benzyl)-5,8-dimethyl-6-(2-morpholin-4-yl-ethoxy)-9H-1,2,3a,4,9,10-hexaaza-cyclopenta[b]fluorine], the IC50 was 560 nM.

Broadly, the IC50 is the concentration that gives 50% inhibition.
